Experimental findings from PubChem BioAssay (NCI) are described below.

Test systems include A549 NSCLC; ACHN renal; BT-549 breast; COLO 205 colon; EKVX NSCLC; HCT-116 colon; HOP-62 NSCLC; HOP-92 NSCLC; MALME-3M melanoma; MDA-MB-231 breast; MDA-N; RPMI-8226 leukemia; SF-268 CNS; SK-MEL-2 melanoma; SK-MEL-28 melanoma; SK-MEL-5 melanoma; SN12C renal; TK-10 renal.
Common to all, as to assay: DTP human tumour cell line panel, 48 h

SMILES strings stand for the structures.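 Test compounds were applied to cells in 96-well plates for 48 hours at 5 doses. TGI denotes the concentration required for complete inhibition of growth.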

With `COc1cc(C(c2cccc3ccccc23)N2C(=O)CCC2C(=O)O)cc(OC)c1OC` (stereo not drawn), the TGI with A549 NSCLC, in the assay with ACHN renal, in the assay with BT-549 breast, with COLO 205 colon, with EKVX NSCLC and in the assay on HCT-116 colon was > 100 µM in each case. The TGI with HOP-62 NSCLC, in the assay on HOP-92 NSCLC, in the assay with MALME-3M melanoma, with MDA-MB-231 breast, in the assay with MDA-N and in the assay with RPMI-8226 leukemia was > 100 µM throughout. The TGI with SF-268 CNS, with SK-MEL-2 melanoma, in the assay on SK-MEL-28 melanoma, in the assay with SK-MEL-5 melanoma and with SN12C renal was > 100 µM throughout.

With `O=C1C2Cc3c(n(C(=O)c4ccccc4)c4ccccc34)CC2C(=O)N1c1ccc(Nc2ccc(N3C(=O)C4Cc5c(n(C(=O)c6ccccc6)c6ccccc56)CC4C3=O)cc2)cc1` (stereo not drawn), the TGI with A549 NSCLC, with ACHN renal, in the assay on BT-549 breast, with COLO 205 colon, with EKVX NSCLC and with HCT-116 colon was > 100 µM in each case. Further, the TGI in the assay with HOP-62 NSCLC, in the assay on HOP-92 NSCLC, in the assay on MALME-3M melanoma, in the assay on MDA-MB-231 breast, with MDA-N and in the assay on SF-268 CNS was > 100 µM each time. For the same compound, the TGI with SK-MEL-28 melanoma, with SK-MEL-5 melanoma, in the assay with SN12C renal and with TK-10 renal was > 100 µM each time.

As for `NC(=O)C(=CNC(=S)Nc1ccc(S(=O)(=O)Nc2ccccn2)cc1)C(N)=O`, the TGI in the assay with A549 NSCLC, in the assay on ACHN renal, with BT-549 breast, in the assay with COLO 205 colon, with EKVX NSCLC and with HCT-116 colon was > 100 µM throughout. In addition, the TGI in the assay on HOP-62 NSCLC, in the assay with HOP-92 NSCLC, with MDA-MB-231 breast, in the assay on MDA-N, with RPMI-8226 leukemia and in the assay with SF-268 CNS was > 100 µM in each case. The TGI in the assay on SK-MEL-2 melanoma, in the assay on SK-MEL-28 melanoma, in the assay with SK-MEL-5 melanoma, with SN12C renal and in the assay on TK-10 renal was > 100 µM in each case.

Take `N#Cc1ncn(CCO)c1N`: the TGI in the assay on A549 NSCLC, in the assay with ACHN renal, in the assay on BT-549 breast, in the assay with COLO 205 colon, with EKVX NSCLC and with HCT-116 colon was > 100 µM in each case. Also, the TGI in the assay on HOP-62 NSCLC, in the assay on MALME-3M melanoma, with MDA-MB-231 breast, with MDA-N, in the assay on RPMI-8226 leukemia and with SF-268 CNS was > 100 µM in each case. In addition, the TGI in the assay with SK-MEL-2 melanoma, in the assay with SK-MEL-28 melanoma, with SK-MEL-5 melanoma, in the assay with SN12C renal and in the assay on TK-10 renal was > 100 µM each time.

Consider `Cc1nc(C)c(N2CCN(C(=O)O)CC2)c(=O)[nH]1`, for which the TGI with A549 NSCLC, with ACHN renal, in the assay with BT-549 breast, in the assay with COLO 205 colon, with EKVX NSCLC and in the assay with HCT-116 colon was > 100 µM in each case. Further, the TGI in the assay on HOP-62 NSCLC, with HOP-92 NSCLC, in the assay with MALME-3M melanoma, with MDA-MB-231 breast, with MDA-N and in the assay with RPMI-8226 leukemia was > 100 µM each time. The TGI in the assay on SF-268 CNS, in the assay on SK-MEL-28 melanoma, in the assay with SK-MEL-5 melanoma, with SN12C renal and in the assay with TK-10 renal was > 100 µM in each case.

As to `Cc1cc(S(=O)(=O)NC2=NCCN2Cc2ccccc2)c(S)cc1Cl`, the TGI with A549 NSCLC, with ACHN renal, in the assay with BT-549 breast, with COLO 205 colon, in the assay with EKVX NSCLC and in the assay with HCT-116 colon was > 100 µM throughout. Also, the TGI in the assay on HOP-62 NSCLC, in the assay with MALME-3M melanoma, with MDA-MB-231 breast, in the assay on MDA-N, with RPMI-8226 leukemia and in the assay with SF-268 CNS was > 100 µM throughout. Further, the TGI in the assay with SK-MEL-2 melanoma, in the assay with SK-MEL-28 melanoma, in the assay with SK-MEL-5 melanoma, in the assay on SN12C renal and in the assay with TK-10 renal was > 100 µM each time.

As to `CC(C)CC(NP(=O)(O)OC1OC(C)C(O)C(O)C1O)C(=O)NC(Cc1c[nH]c2ccccc12)C(=O)O` (stereo not drawn), the TGI with A549 NSCLC, in the assay with BT-549 breast, in the assay with COLO 205 colon, in the assay with EKVX NSCLC, with HCT-116 colon and in the assay on HOP-62 NSCLC was > 100 µM throughout. Besides, the TGI in the assay on HOP-92 NSCLC, in the assay on MALME-3M melanoma, with MDA-MB-231 breast, in the assay on MDA-N, in the assay on RPMI-8226 leukemia and in the assay on SF-268 CNS was > 100 µM in each case. Further, the TGI in the assay with SK-MEL-28 melanoma, in the assay with SK-MEL-5 melanoma and with SN12C renal was > 100 µM throughout.

With `CCN(CC)c1ccc(C2Nc3ccc4ccccc4c3C3=C2C(=O)CCC3)cc1` (stereo not drawn), the TGI – broadly, the concentration at which net growth stops – with A549 NSCLC is > 100 µM; in the assay with ACHN renal, 33.6 µM; in the assay on BT-549 breast, > 100 µM; in the assay on COLO 205 colon it was > 100 µM; with EKVX NSCLC it was > 100 µM; in the assay on HCT-116 colon it was > 100 µM. Besides, the total growth inhibition concentration (TGI) in the assay with HOP-62 NSCLC was 69.5 µM; with MALME-3M melanoma, > 100 µM; in the assay on MDA-MB-231 breast it was 50.8 µM; with MDA-N it was > 100 µM; with RPMI-8226 leukemia, > 100 µM; with SF-268 CNS, > 100 µM. Also, the total growth inhibition concentration (TGI) in the assay with SK-MEL-2 melanoma, in the assay on SK-MEL-28 melanoma and with SN12C renal was > 100 µM each time.

`CC(=O)Oc1c(OC(C)C)c(C)c(O[Si](C(C)C)(C(C)C)C(C)C)c2[nH]c3ccccc3c12`: the TGI in the assay on A549 NSCLC, in the assay on ACHN renal, with BT-549 breast, with COLO 205 colon, in the assay with EKVX NSCLC and in the assay with HCT-116 colon was > 100 µM in each case. The TGI in the assay on HOP-62 NSCLC, in the assay with HOP-92 NSCLC, in the assay with MDA-MB-231 breast, in the assay with MDA-N, in the assay on RPMI-8226 leukemia and in the assay with SF-268 CNS was > 100 µM in each case. The TGI with SK-MEL-2 melanoma, in the assay with SK-MEL-28 melanoma, in the assay on SK-MEL-5 melanoma, with SN12C renal and in the assay with TK-10 renal was > 100 µM throughout.

Regarding `COc1cc(/C=N/c2ccccn2)cc(OC)c1OC`, the TGI in the assay on A549 NSCLC, in the assay with ACHN renal, in the assay with BT-549 breast, with COLO 205 colon, with EKVX NSCLC and in the assay with HCT-116 colon was > 100 µM each time. In addition, the TGI with HOP-62 NSCLC was > 100 µM; with HOP-92 NSCLC, > 100 µM; in the assay with MALME-3M melanoma, > 100 µM; with MDA-MB-231 breast it was > 100 µM; in the assay on MDA-N, > 59.4 µM; in the assay with RPMI-8226 leukemia, > 100 µM. The TGI in the assay on SF-268 CNS, in the assay on SK-MEL-2 melanoma, with SK-MEL-28 melanoma, in the assay with SK-MEL-5 melanoma and with SN12C renal was > 100 µM each time.

Consider `CC(C)CCC[C@@H](C)C1CCC2[C@@H]3CCC4C[C@@H](NS(C)(=O)=O)CC[C@]4(C)C3CC[C@@]21C` (stereo partly drawn), for which the TGI in the assay with A549 NSCLC, in the assay with BT-549 breast, with COLO 205 colon, with EKVX NSCLC, in the assay on HCT-116 colon and in the assay with HOP-62 NSCLC was > 100 µM in each case. In addition, the TGI in the assay on MALME-3M melanoma, in the assay on MDA-MB-231 breast, in the assay with MDA-N, in the assay on RPMI-8226 leukemia, with SF-268 CNS and in the assay on SK-MEL-2 melanoma was > 100 µM throughout. Also, the TGI in the assay on SK-MEL-28 melanoma, with SK-MEL-5 melanoma, with SN12C renal and in the assay with TK-10 renal was > 100 µM each time.

In the case of `OC(Cc1ccc2ccccc2n1)(C(F)(F)Cl)C(F)(F)Cl`, the TGI with A549 NSCLC, with ACHN renal, in the assay on BT-549 breast, in the assay with COLO 205 colon, in the assay on EKVX NSCLC and in the assay on HCT-116 colon was > 10 µM each time. Besides, the TGI with HOP-62 NSCLC, in the assay on HOP-92 NSCLC, with MALME-3M melanoma, in the assay on MDA-MB-231 breast, with MDA-N and in the assay with SF-268 CNS was > 10 µM each time. Also, the TGI in the assay on SK-MEL-28 melanoma, in the assay on SK-MEL-5 melanoma, with SN12C renal and with TK-10 renal was > 10 µM each time.

Take `COC(=O)c1nn2ccc3ccccc3c2c1C(=O)OC`: the TGI in the assay on A549 NSCLC, with ACHN renal, in the assay with BT-549 breast, in the assay on COLO 205 colon, in the assay with EKVX NSCLC and in the assay on HCT-116 colon was > 100 µM throughout. Further, the TGI in the assay with HOP-62 NSCLC, with HOP-92 NSCLC, in the assay with MALME-3M melanoma, in the assay with MDA-MB-231 breast, with MDA-N and with SF-268 CNS was > 100 µM in each case. Moreover, the TGI in the assay on SK-MEL-2 melanoma, in the assay on SK-MEL-28 melanoma, with SK-MEL-5 melanoma, in the assay with SN12C renal and in the assay on TK-10 renal was > 100 µM in each case.

Regarding `O=C(O)C1CCCCN1C(=O)Cc1c[nH]c2ccccc12` (stereo not drawn), the TGI in the assay with A549 NSCLC, in the assay with ACHN renal, in the assay with BT-549 breast, in the assay with COLO 205 colon, in the assay with EKVX NSCLC and in the assay on HCT-116 colon was > 100 µM each time. Moreover, the TGI in the assay on HOP-62 NSCLC, in the assay with HOP-92 NSCLC, with MALME-3M melanoma, in the assay on MDA-MB-231 breast, in the assay with MDA-N and in the assay on RPMI-8226 leukemia was > 100 µM each time. Also, the TGI in the assay with SF-268 CNS, in the assay with SK-MEL-2 melanoma, with SK-MEL-28 melanoma, in the assay with SN12C renal and with TK-10 renal was > 100 µM each time.

With `CCO/C(O)=C(/C(=N)N1CCCC1)C(=O)Nc1cccc(Cl)c1`, the TGI in the assay with A549 NSCLC, with ACHN renal, in the assay on BT-549 breast, in the assay with COLO 205 colon, in the assay with EKVX NSCLC and in the assay on HCT-116 colon was > 100 µM throughout. The TGI with HOP-62 NSCLC, with MALME-3M melanoma, in the assay with MDA-MB-231 breast, in the assay with MDA-N, with RPMI-8226 leukemia and in the assay with SF-268 CNS was > 100 µM each time. Besides, the TGI in the assay with SK-MEL-2 melanoma, with SK-MEL-28 melanoma, with SN12C renal and with TK-10 renal was > 100 µM each time.

With `[N-]=[N+]=Nc1ccc2c(c1)Sc1ccccc1N2CCCCN1CCN(Cc2ccc(C(=O)c3ccc(CSCC(N)C(=O)O)cc3)cc2)CC1` (stereo not drawn), the TGI with ACHN renal was > 100 µM; with BT-549 breast, 40.1 µM; with COLO 205 colon it was 40.1 µM; in the assay on EKVX NSCLC, > 100 µM; in the assay on HCT-116 colon it was 29.5 µM; with HOP-62 NSCLC it was 57.3 µM. The total growth inhibition concentration (TGI) in the assay with HOP-92 NSCLC is 38.2 µM; in the assay with MDA-MB-231 breast it was 50.9 µM; in the assay on MDA-N it was 35.4 µM; in the assay on RPMI-8226 leukemia, > 100 µM; in the assay on SF-268 CNS, > 100 µM; in the assay on SK-MEL-2 melanoma, 48.1 µM. For the same compound, the TGI is 3.8 µM in the assay with SK-MEL-28 melanoma, 34.9 µM in the assay on SK-MEL-5 melanoma, > 100 µM in the assay with SN12C renal and > 100 µM in the assay with TK-10 renal.
